From ChEMBL document CHEMBL1201862, “PubChem BioAssay data set” (2004) come the findings set out here.

Calls of active or inactive are those of the source.

Assay [1] has as its target Peroxisome proliferator-activated receptor gamma/Nuclear receptor coactivator 1 (Homo sapiens, UniProt P37231). Nature of the assay: TR-FRET dose response biochemical High Throughput Screening assay for agonists of the steroid receptor coactivator 1 (SRC-1) recruitment by the peroxisome proliferator-activated receptor gamma (PPAR gamma): non-selective agonists. [Related pubchem assays (depositor defined):AID1300, AID1808, AID504735, AID631]. It is filed as protein assay.

The target of assay [2] is Peroxisome proliferator-activated receptor gamma/Nuclear receptor coactivator 3 (Homo sapiens, UniProt P37231). Nature of the assay: TR-FRET dose response biochemical High Throughput Screening assay for agonists of the steroid receptor coactivator 3 (SRC-3) recruitment by the peroxisome proliferator-activated receptor gamma (PPAR gamma): non-selective agonists. [Related pubchem assays: 1301 (Confirmation screen.), 1048 (Primary screen.)]. The assay is classed as functional.

Assay [3] deals with Peroxisome proliferator-activated receptor gamma/Nuclear receptor coactivator 2 (Homo sapiens, UniProt P37231). Nature of the assay: TR-FRET dose response biochemical High Throughput Screening assay for agonists of the steroid receptor coactivator 2 (SRC-2) recruitment by the peroxisome proliferator-activated receptor gamma (PPAR gamma): non-selective agonists. [Related pubchem assays: 1297, 1032 ]. It is filed as functional.

Assay [4] deals with Mitogen-activated protein kinase 10 (Homo sapiens, UniProt P53779). Nature of the assay: Dose response biochemical screening assay for inhibitors of c-Jun N-Terminal Kinase 3 (JNK3). [Related pubchem assays: 746 ].
Assay [5] concerns the target T1, Mannose-6-phosphate isomerase (Homo sapiens, UniProt P34949).
T1 sequence (P34949 whole entry): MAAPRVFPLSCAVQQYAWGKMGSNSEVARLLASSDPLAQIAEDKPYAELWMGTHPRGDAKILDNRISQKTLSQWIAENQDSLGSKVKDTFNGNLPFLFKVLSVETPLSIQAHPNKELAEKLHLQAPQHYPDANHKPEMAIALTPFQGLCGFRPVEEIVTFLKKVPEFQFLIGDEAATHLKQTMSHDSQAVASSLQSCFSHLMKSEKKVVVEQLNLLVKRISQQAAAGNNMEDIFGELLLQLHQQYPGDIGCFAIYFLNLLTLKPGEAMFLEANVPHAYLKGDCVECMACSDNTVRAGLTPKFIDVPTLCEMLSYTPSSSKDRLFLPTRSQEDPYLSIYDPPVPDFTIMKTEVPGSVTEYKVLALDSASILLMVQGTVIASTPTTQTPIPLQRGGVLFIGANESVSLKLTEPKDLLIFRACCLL
Briefly: PMI enzyme inhibitors, confirmation, biochemical, fluorescence intensity (AID 1535).

A further assay has as its target Phosphomannomutase 2 (Homo sapiens, UniProt O15305). Briefly: Counter screen SAR assay for PMM2 inhibitors via a fluorescence intensity assay. [Related pubchem assays (depositor defined):AID1545, AID1574].
Assay [6] can be described thus: A549 cell cytotoxicity, dose response, cytotoxicity control, plate reader, dry powder, set 7 (AID 743318). It is filed as functional, cell-based.
In another assay the test system is Danio rerio. Briefly: In Vivo Angiogenesis Dose-Response Confirmation. [Related pubchem assays: 732 (Assay preceding this confirmatory assay.)]. It is filed as functional, organism-based.
Assay [7] in a line: Concentration-dependent survival of SW480 colon cancer line, luminescence detection with CellTiter-Glo, half-maximal inhibitory concentration (AID 1117338). It is filed as functional.
Assay [8] in a line: RKO cell viability reduction, dose response, CellTiter-Glo luminescence (AID 1117322). It is filed as functional.
The nature of assay [9]: cytotoxicity toward HCT116 cells – cell-based, CellTiter-Glo luminescence, IC50, dose response (AID 1117332). The assay is classed as functional. The settings on record: HCT-116.
A short description of assay [10]: SNU-C1 cell viability reduction, dose response, CellTiter-Glo luminescence (AID 1117323). The assay is classed as functional, cell-based.
Assay [11] in a line: cytotoxicity toward Colo320 cells – cell-based, CellTiter-Glo luminescence, IC50, dose response (AID 1117334). It is filed as functional. Particulars: COLO 320.
Assay [12] can be described thus: cytotoxicity toward HT-29 cells – cell-based, CellTiter-Glo luminescence, IC50, dose response (AID 1117330). It is filed as functional.
Assay [13] in a line: CellTiter-Glo luminescent dose response of DLD-1 viability loss (AID 1117352). It is filed as functional.
Assay [14] in a line: HCT116 cell viability decrease, GSK3B pretreatment – CellTiter-Glo, IC50, dose response (AID 1117339). The assay is classed as functional. The settings on record: HCT-116.
A short description of assay [15]: half-maximal inhibitory concentration for glucagon-like peptide-1 release, STC-1 cell line, dose-response (AID 1117345). It is filed as functional, cell-based.
Assay [16] in a line: Glucagon-like peptide 1 release potency, NCI-H716 cell line, dose-response, half-maximal inhibitory concentration (AID 1117344). It is filed as functional, cell-based.
Assay [17] concerns the target Heat shock protein HSP 90-alpha (Homo sapiens, UniProt P07900). Nature of the assay: Luminescence-based dose response biochemical high throughput screening assay for inhibitors of the Heat Shock Protein 90 (HSP90). [Related pubchem assays: 1831 (Summary AID.), 1846 (Confirmation screen.), 1789 (Primary screen.)].
The nature of assay [18]: P. falciparum late gametocyte killing, dose response, luminescence (AID 1117278).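 Also: gametocytes exposed to compound for 24 hours.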 The assay is classed as functional, cell-based.
Assay [19] in a line: Jurkat T cell cytotoxicity, dose response, cytotoxicity control for P. falciparum gametocyte viability project, luminescence (AID 1117277).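 Also: potency reflects loss of cellular ATP meaning fewer viable cells.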 The assay is classed as functional, cell-based.
Assay [20] can be described thus: Luminescent dose response cell-based high throughput screening assay for inhibitors of the Janus kinase 2 mutant JAK2V617F. [Related pubchem assays: 1446 (Primary screen.), 1521 (Confirmation assay.), 1486 (Counter screen.)]. It is filed as functional.
The test system of assay [21] is BJ. Nature of the assay: cytotoxicity toward BJ-TERT fibroblasts, dose response, cell-based, RAS-independent, luminescence (AID 1933). The settings on record: Homo sapiens. It is filed as functional.
In assay [22] the test system is BJ. Nature of the assay: cells. It is filed as functional, cell-based. The settings on record: Homo sapiens.
The subject of assay [23] is BJ. Nature of the assay: cytotoxicity toward BJ-TERT-LT-ST fibroblasts, dose response, cell-based, RAS-independent, luminescence (AID 1935).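 Also: BJ fibroblasts immortalized with TERT plus LT and ST oncogenes.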 The assay is classed as functional. The settings on record: Homo sapiens.
Assay [24] can be described thus: cytotoxicity toward DRD oncogenic fibroblasts, dose response, cell-based, non-viral oncogenic, luminescence (AID 1934). The settings on record: Homo sapiens. It is filed as functional.
In assay [25] the test system is BJ. Briefly: cytotoxicity toward Ras-transformed BJeLR fibroblasts, dose response, cell-based, alamar blue fluorescence, cherrypicked samples (AID 2631).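 Also: confirmatory dose-response assay in RAS-dependent BJ fibroblasts engineered with TERT, LT and ST, with cytotoxicity read by fluorescence.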 It is filed as functional. Particulars: Homo sapiens.
The nature of assay [26]: P. falciparum 3D7-ScDHODH growth inhibitors, dose response, SYBR Green, dry powder samples (AID 1159570).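 Also: parasite growth measured after 72 hours of compound exposure.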 It is filed as functional, cell-based.
Assay [27] can be described thus: HepG2 cell cytotoxicity, dose response, cytotoxicity control, plate reader, dry powder samples (AID 1159569).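 Also: inhibitor potency with signal falling toward the positive control level.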 The assay is classed as functional, cell-based.
Assay [28] is described as follows: P. falciparum Dd2 growth inhibitors, dose response, SYBR Green, dry powder samples, set 9 (AID 1159568). It is filed as functional, cell-based.
Assay [29] is described as follows: P. falciparum Dd2 growth inhibitors, dose response, SYBR Green, cherry-picked samples (AID 1159567). The assay is classed as functional, cell-based.
Assay [30] in a line: P. falciparum Dd2 growth inhibitors, dose response, SYBR Green, dry powder samples (AID 1159566).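 Also: potency for growth inhibition with lower SYBR green DNA signal.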 The assay is classed as functional, cell-based.
The nature of assay [31]: HepG2 cell cytotoxicity, dose response, cytotoxicity control, cherry-picked samples (AID 1159577). It is filed as functional, cell-based.
The nature of assay [32]: Plasmodium falciparum Dd2 Sybr green parasite growth Measured in Cell-Based and Microorganism Combination System Using Plate Reader - 2153-01_Inhibitor_Dose_DryPowder_Activity_Set3. The assay is classed as functional.
The nature of assay [33]: P. falciparum ATP4 D1247Y mutant growth inhibitors, dose response, NITD609-resistant line, SYBR Green, dry powder (AID 1159571).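 Also: parasites synchronized at ring stage by sorbitol before testing.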 It is filed as functional, cell-based.
For assay [34], the target named is Aryl hydrocarbon receptor (Homo sapiens, UniProt P35869). Briefly: Luminescence-based cell-based high throughput dose response assay for activators of the Aryl Hydrocarbon Receptor (AHR). [Related pubchem assays: 2796 (Primary screen (AHR activators in singlicate)), 2845 (Confirmation screen (AHR activators in triplicate)), 434939 (Counterscreen (PXR activators in triplicate)), 2804 (Summary (AHR activators))]. It is filed as ADME.

In assay [35] the target is T2, Low molecular weight phosphotyrosine protein phosphatase (Homo sapiens, UniProt P24666).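 Also: Dose-response confirmation assay measuring inhibition of LMPTP enzyme activity by fluorescence intensity read-out.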
T2 sequence (P24666 whole entry): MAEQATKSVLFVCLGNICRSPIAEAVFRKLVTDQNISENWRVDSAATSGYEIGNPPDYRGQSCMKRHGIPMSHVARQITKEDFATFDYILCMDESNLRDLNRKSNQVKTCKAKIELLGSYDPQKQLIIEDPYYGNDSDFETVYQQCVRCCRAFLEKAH
The assay is classed as functional. The settings on record: read-out: IC50_Mean.

The nature of assay [36]: Artemis endonuclease inhibitor potency, dose response, biochemical, fluorescence intensity (AID 720701).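 Also: Artemis endonuclease enzyme.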 The assay is classed as functional.
A short description of assay [37]: HEK293T cell cytotoxicity, dose response, cytotoxicity control, CellTiter-Glo luminescence, dry powder, set 2 (AID 720595). It is filed as functional, cell-based. Particulars: HEK293.
Assay [38] can be described thus: HeLa cell cytotoxicity, dose response, cytotoxicity control, CellTiter-Glo luminescence, dry powder, set 2 (AID 720593). It is filed as functional, cell-based.
Assay [39] can be described thus: Dose-response inhibition of insulin secretion in a rat insulinoma line at 5 mM glucose (AID 1117331). The assay is classed as functional, cell-based. Particulars: INS-1E.
The nature of the next assay: cells. It is filed as functional, cell-based. Particulars: INS-1E.
Assay [40] addresses Peroxisome proliferator-activated receptor gamma/Nuclear receptor corepressor 2 (Homo sapiens, UniProt P37231+Q9Y618). Nature of the assay: Counterscreen for NR2E3 inverse agonists: TR-FRET-based biochemical high throughput dose response assay to identify inverse agonists of the interaction between peroxisome proliferator-activated receptor gamma (PPARg) and nuclear receptor co-repressor 2 (NCOR2). It is filed as functional.

Assay [41] addresses Photoreceptor-specific nuclear receptor (Homo sapiens, UniProt Q9Y5X4). Nature of the assay: NR2E3 inverse agonists, dose response, biochemical, TR-FRET (AID 463256). It is filed as functional.

Peroxisome proliferator-activated receptor gamma/Nuclear receptor coactivator 3, sequence (P37231 whole entry): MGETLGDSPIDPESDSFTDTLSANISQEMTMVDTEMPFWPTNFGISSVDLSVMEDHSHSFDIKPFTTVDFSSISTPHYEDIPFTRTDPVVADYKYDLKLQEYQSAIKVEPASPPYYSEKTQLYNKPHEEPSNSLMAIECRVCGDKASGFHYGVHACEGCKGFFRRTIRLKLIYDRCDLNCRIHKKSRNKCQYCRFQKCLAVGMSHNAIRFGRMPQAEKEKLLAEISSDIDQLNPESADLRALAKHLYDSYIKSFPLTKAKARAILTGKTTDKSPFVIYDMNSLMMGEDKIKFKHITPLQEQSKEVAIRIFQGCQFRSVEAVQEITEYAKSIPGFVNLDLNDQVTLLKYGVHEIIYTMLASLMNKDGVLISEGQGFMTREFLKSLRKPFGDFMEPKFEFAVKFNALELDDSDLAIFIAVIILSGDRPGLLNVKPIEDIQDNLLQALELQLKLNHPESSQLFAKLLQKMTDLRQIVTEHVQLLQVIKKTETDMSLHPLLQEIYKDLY
Peroxisome proliferator-activated receptor gamma/Nuclear receptor coactivator 3, sequence (Q9Y6Q9 whole entry, further chain): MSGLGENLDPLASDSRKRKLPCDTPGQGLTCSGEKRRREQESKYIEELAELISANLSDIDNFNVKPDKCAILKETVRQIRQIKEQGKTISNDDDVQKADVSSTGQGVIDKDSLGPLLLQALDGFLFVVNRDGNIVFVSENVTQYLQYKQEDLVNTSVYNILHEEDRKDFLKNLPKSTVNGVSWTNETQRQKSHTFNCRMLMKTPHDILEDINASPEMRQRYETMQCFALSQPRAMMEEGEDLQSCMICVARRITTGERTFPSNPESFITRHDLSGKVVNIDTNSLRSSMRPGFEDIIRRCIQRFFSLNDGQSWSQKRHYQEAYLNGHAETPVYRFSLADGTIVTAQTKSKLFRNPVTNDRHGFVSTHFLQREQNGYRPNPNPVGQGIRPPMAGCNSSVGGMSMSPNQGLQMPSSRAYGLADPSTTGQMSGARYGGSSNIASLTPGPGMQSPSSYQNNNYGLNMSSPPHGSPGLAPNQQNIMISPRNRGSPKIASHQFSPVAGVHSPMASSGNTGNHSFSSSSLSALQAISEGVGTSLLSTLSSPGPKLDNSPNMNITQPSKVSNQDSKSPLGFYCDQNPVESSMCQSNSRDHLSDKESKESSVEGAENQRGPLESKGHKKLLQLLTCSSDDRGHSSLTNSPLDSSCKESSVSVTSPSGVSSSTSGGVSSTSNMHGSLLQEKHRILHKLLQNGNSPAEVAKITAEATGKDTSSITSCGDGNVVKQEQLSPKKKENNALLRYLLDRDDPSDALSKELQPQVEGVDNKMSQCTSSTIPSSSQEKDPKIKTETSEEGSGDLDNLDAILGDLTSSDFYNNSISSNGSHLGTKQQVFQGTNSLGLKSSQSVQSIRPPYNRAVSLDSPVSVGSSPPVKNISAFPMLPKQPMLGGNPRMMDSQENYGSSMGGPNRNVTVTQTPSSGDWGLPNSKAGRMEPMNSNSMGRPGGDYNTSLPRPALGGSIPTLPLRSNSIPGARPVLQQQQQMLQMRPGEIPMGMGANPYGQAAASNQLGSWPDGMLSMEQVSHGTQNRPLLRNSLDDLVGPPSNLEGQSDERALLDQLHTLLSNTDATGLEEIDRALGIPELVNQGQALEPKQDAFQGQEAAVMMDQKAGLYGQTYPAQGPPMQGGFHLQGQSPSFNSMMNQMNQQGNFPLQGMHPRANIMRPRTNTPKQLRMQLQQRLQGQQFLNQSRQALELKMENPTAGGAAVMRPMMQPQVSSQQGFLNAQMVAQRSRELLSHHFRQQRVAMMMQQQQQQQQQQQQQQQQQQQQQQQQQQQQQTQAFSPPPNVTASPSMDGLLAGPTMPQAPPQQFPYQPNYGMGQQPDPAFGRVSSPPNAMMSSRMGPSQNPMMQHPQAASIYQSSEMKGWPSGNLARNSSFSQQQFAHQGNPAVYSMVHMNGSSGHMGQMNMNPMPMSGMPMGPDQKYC
Peroxisome proliferator-activated receptor gamma/Nuclear receptor corepressor 2, sequence (P37231 whole entry): as the sequence (P37231 whole entry) above
Peroxisome proliferator-activated receptor gamma/Nuclear receptor corepressor 2, sequence (Q9Y618 whole entry): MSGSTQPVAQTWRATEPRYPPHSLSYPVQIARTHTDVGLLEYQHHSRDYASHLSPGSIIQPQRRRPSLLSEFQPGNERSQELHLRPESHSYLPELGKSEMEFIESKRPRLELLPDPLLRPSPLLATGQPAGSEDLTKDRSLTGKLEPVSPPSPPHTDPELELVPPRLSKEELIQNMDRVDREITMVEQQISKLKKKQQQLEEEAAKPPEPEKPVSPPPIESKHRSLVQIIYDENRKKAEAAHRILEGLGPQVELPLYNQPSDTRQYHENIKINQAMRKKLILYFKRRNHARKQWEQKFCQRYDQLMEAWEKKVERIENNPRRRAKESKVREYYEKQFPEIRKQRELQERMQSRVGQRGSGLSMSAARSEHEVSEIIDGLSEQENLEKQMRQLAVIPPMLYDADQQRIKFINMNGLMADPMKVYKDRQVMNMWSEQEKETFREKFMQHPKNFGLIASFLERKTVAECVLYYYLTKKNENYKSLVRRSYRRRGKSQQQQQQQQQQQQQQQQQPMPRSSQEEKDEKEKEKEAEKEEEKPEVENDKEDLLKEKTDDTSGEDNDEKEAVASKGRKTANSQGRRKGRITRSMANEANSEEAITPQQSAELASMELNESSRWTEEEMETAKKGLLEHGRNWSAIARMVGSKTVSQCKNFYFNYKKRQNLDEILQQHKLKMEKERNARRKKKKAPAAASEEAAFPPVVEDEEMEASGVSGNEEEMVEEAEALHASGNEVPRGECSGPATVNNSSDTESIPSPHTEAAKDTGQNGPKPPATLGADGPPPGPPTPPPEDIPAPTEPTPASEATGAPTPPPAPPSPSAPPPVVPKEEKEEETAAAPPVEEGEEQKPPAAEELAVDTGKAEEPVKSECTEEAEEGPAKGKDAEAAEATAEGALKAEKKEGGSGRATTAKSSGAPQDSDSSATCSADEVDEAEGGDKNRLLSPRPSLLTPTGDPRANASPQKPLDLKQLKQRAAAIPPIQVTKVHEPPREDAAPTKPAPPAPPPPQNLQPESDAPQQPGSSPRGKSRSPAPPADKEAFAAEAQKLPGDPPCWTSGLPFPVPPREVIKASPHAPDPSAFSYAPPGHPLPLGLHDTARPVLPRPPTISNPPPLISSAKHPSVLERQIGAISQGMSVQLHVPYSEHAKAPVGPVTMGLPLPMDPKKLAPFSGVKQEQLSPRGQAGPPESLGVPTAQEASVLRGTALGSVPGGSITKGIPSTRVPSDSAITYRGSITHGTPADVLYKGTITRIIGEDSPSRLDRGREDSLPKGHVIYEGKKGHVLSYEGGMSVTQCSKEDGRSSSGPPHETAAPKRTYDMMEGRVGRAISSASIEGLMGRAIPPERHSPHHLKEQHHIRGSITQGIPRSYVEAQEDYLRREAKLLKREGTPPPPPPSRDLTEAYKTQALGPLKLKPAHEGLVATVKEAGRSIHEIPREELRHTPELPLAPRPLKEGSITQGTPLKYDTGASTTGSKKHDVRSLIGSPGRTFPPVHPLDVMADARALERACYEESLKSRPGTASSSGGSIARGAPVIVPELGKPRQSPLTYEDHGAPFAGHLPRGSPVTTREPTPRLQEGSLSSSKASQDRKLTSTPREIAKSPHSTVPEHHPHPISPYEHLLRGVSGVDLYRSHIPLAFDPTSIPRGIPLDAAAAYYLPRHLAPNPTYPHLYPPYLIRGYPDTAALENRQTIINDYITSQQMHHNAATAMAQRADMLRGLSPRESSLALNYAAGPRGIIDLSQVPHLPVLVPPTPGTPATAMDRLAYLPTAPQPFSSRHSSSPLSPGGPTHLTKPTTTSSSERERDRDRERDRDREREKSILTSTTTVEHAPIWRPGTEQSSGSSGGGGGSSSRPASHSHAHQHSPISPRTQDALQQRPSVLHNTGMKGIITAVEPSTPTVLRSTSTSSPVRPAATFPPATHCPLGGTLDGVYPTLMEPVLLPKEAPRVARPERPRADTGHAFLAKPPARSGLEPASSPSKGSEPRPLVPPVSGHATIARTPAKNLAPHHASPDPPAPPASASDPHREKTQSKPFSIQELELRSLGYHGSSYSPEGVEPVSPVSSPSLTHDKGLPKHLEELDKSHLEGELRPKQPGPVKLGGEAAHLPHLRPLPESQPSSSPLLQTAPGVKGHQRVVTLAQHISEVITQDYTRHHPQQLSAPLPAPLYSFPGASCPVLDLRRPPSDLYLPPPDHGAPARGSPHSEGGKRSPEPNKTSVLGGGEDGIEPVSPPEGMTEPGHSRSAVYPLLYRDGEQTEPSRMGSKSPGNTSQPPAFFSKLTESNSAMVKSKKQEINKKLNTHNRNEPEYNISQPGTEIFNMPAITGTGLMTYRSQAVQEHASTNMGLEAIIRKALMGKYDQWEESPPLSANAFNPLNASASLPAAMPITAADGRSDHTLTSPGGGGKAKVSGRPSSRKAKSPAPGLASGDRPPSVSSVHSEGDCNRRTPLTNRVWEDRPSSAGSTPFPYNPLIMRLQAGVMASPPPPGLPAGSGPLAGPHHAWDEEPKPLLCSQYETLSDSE

For `Sc1nnc(-c2cccc(Br)c2)o1`, the half-maximal effective concentration (EC50) in assay [1] is 7.33 µM (active); in [2], > 79.4 µM (not active); in assay [3] it was 3.25 µM (active). The IC50 in assay [4] is > 93.1 µM (not active); in [5], > 50 µM (inactive); at Phosphomannomutase 2 it was > 100 µM (inactive).

For the compound `Cc1ccc(C(C)C)c(OCCn2c(=S)[nH]c3cccc(F)c32)c1`, the concentration at half-maximal activity (AC50) in [6] was 30.2 µM (active).

Turning to `O=C1C(c2c(O)[nH]c3ccc(F)cc23)=Nc2ccccc21`, the IC50 with Danio rerio is 2.17 µM (active).

Turning to `CNC(=O)Oc1cccc2ccccc12` [CARBARIL], the IC50 in assay [7], in assay [8], in assay [9], in assay [10], in assay [11] and in [12] was > 20 µM (inactive) each time. The IC50 in [13] and in assay [14] was > 20 µM (inactive) each time.

With `CN(C)[C@@H]1C(O)=C(C(=O)NCN2CCCC2)C(=O)[C@@]2(O)C(O)=C3C(=O)c4c(O)cccc4[C@@](C)(O)C3C[C@@H]12` (some centres undefined), the IC50 in assay [15] and in assay [16] was > 40 µM (inactive) throughout.

With `COC(=O)c1ccc(NC(=O)c2ccc(C)cc2)o1`, in assay [17], the IC50 is on record as > 60 µM (not active).

Consider `O=C(O)c1ccc(-c2ccccc2)nc1O`, for which the IC50 in assay [18] is > 109 µM (inactive); in assay [19], > 83.2 µM (inactive).

For the compound `CCOc1ccc(Nc2nc(N)nc(CCl)n2)cc1`, the IC50 in [20] was 0.597 µM (active). For the same compound, the 50% effective concentration (EC50) with BJ [21] is 0.839 µM (inconclusive); in the assay with BJ [22], 1.8 µM (active); with BJ [23], 10.8 µM (inconclusive); in [24], 0.694 µM (active); in the assay with BJ [25] it was 5.73 µM (active).

On to `CCCNC(=O)N1[C@H](C#N)[C@H](c2ccc(C#Cc3ccc(F)cc3)cc2)[C@@H]1CO`, for which the AC50 in [26] was 3.48 µM (active); in assay [27] it was 41.4 µM (active); in assay [28] it was 0.0575 µM (active); in assay [29] it was < 0.3 µM (active); in [30], 0.123 µM (active); in [31], > 39 µM (inactive). In addition, the AC50 was 0.15 µM (active) in assay [32] and 0.101 µM (active) in assay [33].

Turning to `CCOCC(=O)Nc1cccc(-c2nc3cccnc3s2)c1C`, in assay [34], the 50% effective concentration (EC50) is 4.22 µM (active).

With `O=C(Cc1cn2ccsc2n1)Nc1nc2c(s1)CN(Cc1ccccc1)CC2`, the IC50 in assay [35] is 44.6 µM (inactive); in assay [36], > 20 µM (inactive).

On to `CCCCC(=O)NC(c1ccco1)c1ccc2cccnc2c1O` (centres undefined), for which the results for the AC50 in assay [37] and in [38] were 3.78 µM (active) and 28.4 µM (active), respectively.

In the case of `CC(C)(Cc1c[nH]c2ccccc12)NCC(O)COc1ccccc1C#N` (centres undefined) [BUCINDOLOL], the IC50 is 15 µM (inactive) in assay [39] and > 33.3 µM (inactive) in the assay “cells”.

Take `Cc1cc(C)c2c(C)c(C(=O)NCc3ccc(S(N)(=O)=O)cc3)oc2c1`: the IC50 in [40] is 3.99 µM (active); in assay [41], 4.06 µM (active).
